Test results taken from ChEMBL document CHEMBL1201862, “PubChem BioAssay data set” (2004).
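The compound was tested at five concentrations on cells cultured in 96-well plates, with a 48-hour exposure period. GI50: concentration for 50% inhibition of growth.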 The source made the active and inactive calls. Rule as the data show it: active = GI50 up to about 1.1 µM and inactive = higher.

Experiments:
Test in all cases: NCI tumour cell line growth inhibition, 48 h
SNB-75 = system: SNB-75
NCI-H23 = system: NCI-H23
NCI-H226 = system: NCI-H226
A549 = system: A549
CCRF-CEM = system: CCRF-CEM
SF-539 = system: SF-539
NCI/ADR-RES = system: NCI/ADR-RES
HOP-62 = system: HOP-62
DU-145 = system: DU-145
MDA-MB-231 = system: MDA-MB-231
BT-549 = system: BT-549
LOX IMVI = system: LOX IMVI
ACHN = system: ACHN
T47D = system: T47D
NCI-H460 = system: NCI-H460
OVCAR-8 = system: OVCAR-8
MDA-N = system: MDA-N
HCC 2998 = system: HCC 2998
EKVX = system: EKVX
NCI-H522 = system: NCI-H522

Measured: GI50

CCOC(=O)c1ccc(C(=O)/C(C(=O)OC(C)(C)C)=C2\CCCN2C)n1C
inactive: SNB-75 15.9 µM | NCI-H23 73.3 µM | NCI-H226 > 100 µM | A549 61.2 µM | CCRF-CEM 72.9 µM | SF-539 > 100 µM | NCI/ADR-RES 34.6 µM | HOP-62 95.3 µM | DU-145 > 100 µM | MDA-MB-231 80 µM | BT-549 39.7 µM | LOX IMVI 87.3 µM | ACHN 73.5 µM | T47D 29.2 µM | NCI-H460 94.6 µM | OVCAR-8 80.4 µM | MDA-N 58.3 µM | HCC 2998 > 100 µM | EKVX 33.4 µM

O=C(NNC(=S)Nc1cccc(Cl)c1)c1cc(-c2ccccc2)nc2ccccc12
inactive: SNB-75 23.8 µM | NCI-H23 13.8 µM | NCI-H226 20 µM | A549 16.3 µM | CCRF-CEM 10.2 µM | SF-539 15.1 µM | NCI/ADR-RES 20.4 µM | HOP-62 16.3 µM | DU-145 15.6 µM | MDA-MB-231 13.1 µM | BT-549 19.4 µM | NCI-H522 14.5 µM | ACHN 16.3 µM | T47D 14.9 µM | NCI-H460 18.6 µM | OVCAR-8 20.7 µM | MDA-N 18.3 µM | HCC 2998 12.6 µM

CO[P@@]1(=O)O[C@@H](c2ccccc2)[C@H](O)[C@@]1(O)c1ccccc1
inactive: SNB-75 > 100 µM | NCI-H23 > 100 µM | NCI-H226 > 100 µM | A549 > 100 µM | CCRF-CEM > 100 µM | SF-539 > 100 µM | NCI/ADR-RES > 100 µM | DU-145 > 100 µM | MDA-MB-231 > 100 µM | BT-549 > 100 µM | NCI-H522 > 100 µM | LOX IMVI > 100 µM | ACHN > 100 µM | T47D > 100 µM | NCI-H460 > 100 µM | OVCAR-8 > 100 µM | MDA-N > 100 µM | EKVX > 100 µM

CC(C)(Cl)C(Br)CCC(C)(Cl)C(Br)CBr (centres undefined)
inactive: SNB-75 25.1 µM | NCI-H23 20.7 µM | NCI-H226 25.4 µM | A549 29.8 µM | CCRF-CEM 18.8 µM | SF-539 24.5 µM | NCI/ADR-RES 31.7 µM | HOP-62 24.9 µM | DU-145 29 µM | MDA-MB-231 23.3 µM | BT-549 13.3 µM | NCI-H522 16.3 µM | ACHN 21.2 µM | T47D 30.5 µM | NCI-H460 20 µM | OVCAR-8 > 100 µM | MDA-N 31 µM | HCC 2998 38.1 µM | EKVX 32.1 µM
